Laboratory results reported in patent US7524840B2, “7,8-disubstituted pyrazolobenzodiazepines” (Hoffmann-La Roche Inc., priority 2004, dated 2009).

Key:
HCT-116 = HCT-116 (colon) cell-based MTT proliferation assay; details: Homo sapiens, HCT-116, 96 h, 4 days post addition of test compound, read-out: Antiproliferative Activity HCT 116 (colon) Assay IC50
Experimental: The estrogen receptor negative epithelial breast carcinoma line (MDA-MB-435) was purchased from American Type Cell Culture Collection (ATCC; Rockville, Md.) and was grown in the medium recommended by ATCC. For analysis of the effect of the test compounds on growth of these cells, the cells were plated at 2000 cells per well in a 96-well tissue culture plate, and were incubated overnight at 37° C. with 5% CO2. The next day, the test compounds were dissolved in 100% dimethyl sulfoxide (DMSO) to yield a 10 mM stock solution. Each compound was diluted with sterile medium to 1 mM in a sufficient quantity to yield a final concentration of 120 μM. The compounds were then serially diluted in medium with 1.2% DMSO. One-fourth final volume of the diluted compounds was transferred to 96 well plates. Test compounds were assayed in duplicate. DMSO was added to a row of “control cells” such that the final concentration of DMSO in each well was 0.3%. Wells to which no cells were added served as the “blank.” Wells to which no inhibitor was added served as “no inhibitor control”. The plates were returned to the incubator, and 5 days post addition of test compound, were analyzed as described below.
3-(4,5-Dimethylthiazole-2-yl)-2,5-diphenyl-2H-tetrazolium bromide (thiazolyl blue; MTT) was added to each well to yield a final concentration of 1 mg/mL. The plates were then incubated at 37° C. for 3 hours. The plates were centrifuged at 1000 rpm for 5 minutes prior to aspiration of the MTT-containing medium. The MTT-containing medium was then removed and 100 μL 100% ethanol was added to each well to dissolve the resulting formazan metabolite. To ensure complete dissolution, plates were shaken for 15 minutes at room temperature. Absorbencies were read in a microtiter plate reader (Molecular Dynamics) at a wavelength of 570 nm with a 650 nm reference. Percent inhibition was calculated by subtracting the absorbance of the blank (no cell) wells from all wells, then subtracting the division of the average absorbance of each test duplicate by the average of the controls from 1.00. Inhibitory concentrations (IC50) were determined from the linear regression of a plot of the logarithm of the concentration versus the percent inhibition.
The colon adenocarcinoma line SW480 and the colon carcinoma line HCT-116 also were obtained from the ATCC and were tested according to the same protocol provided above for MDA-MB-435 cell based assay with the following modifications. Cell line SW480 was plated at 1000 cells per well and analyzed at 6 days post addition of the test compound. Cell line HCT-116 was plated at 1000 cells per well and analyzed at 4 days post addition of test compound.

FGFR = molecular target: T1, FGFR; assay: FGFR kinase HTRF assay; format: biochemical; details: 1.5 nM activated FGFR, 10 μM ATP; read-out: Inhibition of FGFR IC50
T1 construct: fused on or other part: GST tag
Experimental: To determine inhibition of KDR and FGFR, kinase assays were conducted using an HTRF (Homogeneous Time Resolved Fluorescence) assay. This assay is described in A. J. Kolb et. al., Drug Discovery Today, 1998, 3(7), p 333.
FGFR activity assays were carried out as described above for the KDR activity assay with the following differences. GST-tagged FGFR enzyme was activated at room temperature for 1 hour in the following activation buffer: 100 mM HEPES, pH 7.4, 50 mM NaCl, 20 mM MgCl2, and 4 mM ATP. […] The rest of the assay was performed in the same manner as KDR assay.
Compound IC50 values were determined from duplicate sets of data, and calculated by using Excel and fitting data to equation Y=[(a−b)/{1+(X/c)^d]+b, where a and b are enzyme activity in the presence of no test inhibitor compound and an infinite amount of inhibitor test compound, respectively, c is the IC50 and d is the hill constant of the compound response. The IC50 value is the concentration of test compound that reduces by 50% the enzyme activity under the test conditions described.

For `COc1cc2c(cc1F)C(c1ccccc1Cl)=Nc1c(n[nH]c1C)N2` [IVa, 5-(2-chlorophenyl)-1,2-dihydro-7-fluoro-8-methoxy-3-methyl-pyrazolo[3,4-b][1,4]benzodiazepine], the IC50 (HCT-116) was 1040 nM and the IC50 (FGFR) was 28 nM.
